Earlier results on six molecules are cited in patent publication US20260273108A1, “USE OF ACRYLIC ACID-CONTAINING POLYMERS FOR MOLECULAR IMAGING OF TARGET PROTEINS” (The Johns Hopkins University, priority 2023, published 2026).

Where two headings read alike, the source gives them in different places. Marks after values point to notes of the source that are not given here.

For data set [1] the following is noted: for Radio frequency: radiofrequency for saturation (CEST).
For data set [2] the following is noted: bolus intravenous injection in humans.
The conditions of data set [3]: IV dose for rodents.
The mark [4] stands for this setting: water-exchanging protons at a pH of 7-7.4 and temperature of 36-67° C.

With `Nc1ccc(C(=O)O)c(O)c1` [4-Aminosalicylate], in data set [1] (setting [4]), the Exchange rate kex result is given as “N/A, 1,200 s^−1”. The “IV Dose” value in data set [2] is 2.33 mmol/kg.

With `C[C@H](N)C(=O)O` [Alanine], in data set [1], the Radio frequency is 3.0 ppm. The Exchange rate kex in data set [1] (setting [4]) is reported as 7,670 s^−1. In data set [2], the “IV Dose” value was 5.61 mmol/kg.

With `N=C(N)NCCC[C@H](N)C(=O)O` [Arginine], in data set [1], the Radio frequency is on record as 1.8-2.0 ppm. The Exchange rate kex in data set [1] (setting [4]) is listed as 1,200 s^−1.

As to `O=C1CC(=O)NC(=O)N1` [Barbituric acid], in data set [1], the Radio frequency is reported as 5.0 ppm. Further, the “IV Dose” value in data set [3] is reported as 1.56* mmole/kg.

Turning to `N[C@H]1C(O)O[C@H](CO)[C@@H](O)[C@@H]1O` (stereo partly drawn) [Glucosamine], the Exchange rate kex in data set [1] (exchange rates for glucose, pH of 7-7.4 and temperature of 36-67° C.) was 2,900-14,000^# s^−1. In addition, the Radio frequency in data set [1] was 1.2 ppm. Also, the “IV Dose” value in data set [2] is 1.86 mmol/kg.

Turning to `O=c1ccn([C@@H]2O[C@H](CO)[C@@H](O)[C@H]2O)c(=O)[nH]1` [Uridine], the Radio frequency in data set [1] is 6.3-6.4 ppm. Moreover, the Exchange rate kex in data set [1] (setting [4]) was 3080 s⁻¹. Moreover, the “IV Dose” value in data set [2] is 1.43 mmol/kg.
